Results on one molecule are retold here after patent US20090156609A1, “TREATMENT OF POST-TRAUMATIC STRESS DISORDER WITH TETRAHYDROINDOLONE ARYLPIPERZAINE COMPOUNDS” (priority 2007, published 2009).

Series [1] in a line: Neuromuscular coordination (rotarod). Further details: species or system mice. The note with it: male, Swiss Webster (CFW), mouse, in vivo, sc; subcutaneous administration, tested 30 minutes after dosing; read-out: ED50 (ability to remain on the rotarod). The procedure: This model can be used to determine the dose of a compound or composition at which unwanted side effects (muscle tone/motor coordination deficits) occur. Animals (C57 Mice) are placed on a rotarod treadmill (model V EE/85, Columbus Instruments, Columbus, Ohio) accelerating from 1 to 80 revolutions/4 minutes. All mice are given two control trials at least 12 hours before oral administration evaluation of compounds. Mice are tested on the rotarod 30 minutes after administration of compounds. The number of seconds each mouse remained on the rotarod is recorded.
Doses at which the coordination of an animal is decreased or at which its motor function is altered, such that the ability of the animal to remain on the rotarod is reduced, are determined. Doses below this are selected for further evaluation.
Male Swiss Webster (CFW) mice were placed on a rotarod (model V EE/85, Columbus Instruments, Columbus, Ohio) accelerating from 1 to 80 revolutions/4 minutes. All mice were given two control trials at least 12 hours before administration of the present compounds for evaluation. Mice were tested on the rotarod 30 minutes after subcutaneous administration of compounds. The number of seconds each mouse remained on the rotarod was recorded. Compounds that decreased coordination or altered motor function reduced the ability of the animal to remain on the rotarod.
On the technique in general: In the rotarod test animals must keep their balance on a rotating rod.

A further series relates to C-57 mice. As to the kind of experiment: Conditioned avoidance response (CAR) model. The format is in vivo. From the text: The Condition Avoidance Responding (CAR, active avoidance) model is a measure of cognitive and attention impairment. It evaluates the disruption of avoidance (increased latency) without disruption of escape (extrapyramidal motor function).
The training of C-57 mice consists of 20 trials with variable inter-trial intervals (trained to 80% Avoidance Criteria). After a one-minute acclimation period, the house light and an acoustic 90 decibel tone (conditioned stimuli) are presented. A response (crossing to dark compartment) within 5 seconds ends the trial and trial is recorded as avoidance response (CAR). […] To avoid shock, animals learn to move from the lighted side of the − chamber to the dark side when the cue is presented (avoidance) or moved when the shock is administered (escape). Compounds that disrupt cognition in the CAR model can be excluded from candidate consideration.
(§1) The present compounds were tested in the conditioned avoidance response (CAR) model and in the Spontaneous Activity model described above.

Another series relates to mice. As to the kind of experiment: Spontaneous Activity model (locomotor activity). Type of series: in vivo.
From the text: Ambulatory and non-ambulatory activity can be used to test spontaneous and drug-induced motor activity. The test can be used to profile the potential for a drug to induce hyperactivity or sedation.
In this model, Kinder Scientific photobeam activity monitors are used to record the ambulatory and non-ambulatory motor activity. The monitors track the photobeam breaks made by the animal that are used to calculate the number of ambulatory and fine (non-ambulatory) motor movements. A drug-induced increase in activity can indicate the potential for an adverse event such as hyperactivity. A drug-induced decrease in response can indicate the potential for an adverse event such as sedation. Doses at which no significant change in activity are recorded, and more preferably at which no change in activity are recorded, can be selected for further evaluation.
as §1

The test system of the next series is Male C57 mice. As to the kind of experiment: PCP-induced disruption of prepulse inhibition (PPI) of the startle response. Type of series: in vivo. The note with it: for minimal effective dose: Mus musculus, 20 minutes prior to PCP 5 mg/kg IP, read-out: Effective Dose, Prepulse Inhibition Testing. From the text:
The phencyclidine (PCP)-induced disruption of pre-pulse inhibition (PPI) has been used to predict efficacy in cognitive impairment and other disorders. In this test, a weaker auditory prestimulus (prepulse) inhibits the reaction of an test organism to a subsequent strong startle stimulus (pulse). Normal PPI functioning in mammals is critical in filtering out irrelevant sensory information, an inhibitory process that is affected in patients with PTSD. A reduction of the cognitive/attention impairment produced in the PPI model can be used as an efficacy measure for compound candidate selection.
For testing of PPI, male C57 mice can be assigned to five dose groups of eight animals per group, and vehicle or test compound can then be administered orally (PO) or subcutaneously (SC) 20 minutes prior to intraperitoneal (IP) administration of vehicle or PCP (5 mg/kg). Ten minutes following PCP administration, the mice are placed into Hamilton-Kinder startle chambers and evaluation of pre-pulse inhibition procedure is performed. Following a five-minute acclimatization period with background white noise (65 decibels), mice were exposed to five different trial types. Trials were presented […] in a quasi-random order, with randomized 5 to 25 second inter-trial intervals. Trials were: stimulus only trial (120 decibel white noise, 50 ms stimulus); two different prepulse+pulse trials in which a 20 ms 5 decibel, or 10 decibel stimuli above a 65 decibel background preceded the 120 decibel pulse by 120 ms; a 10 decibel prepulse without a 120 decibel pulse; and a no stimulus trial, in which only the background noise was presented.
Compounds which are observed to reduce and/or reverse PCP-induced impairment can be selected as candidates for further evaluation. Such reduction is also indicative of memory enhancement, which is also a positive indicator for further development.
Male C57 mice were assigned to five dose groups of eight animals per group, and vehicle or a test compound was administered orally or subcutaneously 20 minutes prior to intraperitoneal administration of vehicle or PCP (5 mg/kg). Ten minutes following PCP administration, the mice were placed into Kinder Scientific startle chambers (Kinder Scientific, Poway, Calif.) and pre-pulse inhibition was evaluated. Following a five-minute acclimatization period with background white noise (65 dB), mice were exposed to five different trial types. Trials were presented in a quasi-random order, with randomized 5 to 25 second inter-trial intervals. The five different trials (presented 10 times each were): stimulus only trial (120 dB white noise, 50 ms stimulus); two different prepulse+pulse trials in which a 20 ms 5 dB or 10 dB stimulus above a 65 dB background preceded the 120 dB pulse by 120 ms; a 10 dB prepulse without a 120 dB pulse; and a no stimulus trial, in which only the background noise was presented.

For the next series, the system named is C57/BL6 male mice. As to the kind of experiment: Contextual fear conditioning in an open field model. Type of series: in vivo. As to conditions: 3.0 mg/kg subcutaneously for 10 consecutive days, tested day 16 after 5 day wash out. The procedure: Response to the development of contextual fear conditioning in an open field model, a model for PTSD, was evaluated in C57/BL6 male mice using the Kinder Scientific MotorMonitor System (Version 3.11, Kinder Scientific, Poway, Calif.). On Day 1 (Trauma Induction Day), animals were pretreated with compound 30 minutes prior to trauma induction and placed in a cage with a shock-grid floor. Locomotor activity was evaluated by an automated open field system with infrared photo-beams. The mice were placed in the center of the cage and the following variables of motor activity were recorded: locomotor activity, fine movement, and rearing. Animals were placed in the chamber for a total of 300 seconds. After 230 seconds, a 10 second, 2.0 mA electric footshock was administered. Mice remained in the chamber for an additional minute. Mice were then injected subcutaneously for 10 consecutive days (starting 24 hours post trauma induction) with either Compound A (3.0 mg/kg) or vehicle. On day 16, following a 5 day wash out period, mice were exposed to the traumatic environment without shock for 5 minutes. Total ambulatory activity was compared between Day 1 and Day 16.

Setting [2] is: subcutaneous, doses of up to 10 mg/kg.

Read-outs that look alike come from different tables or passages of the source. Where only a bound is given, the exact number is not on record here.

As a reminder, the ED50 is the dose that gives a 50% effect, or the effect in half of the subjects. With `O=C1CCCc2c1ccn2CCN1CCN(c2cccc(Cl)c2)CC1` [Compound A, 1-{2-[4-(3-Chlorophenyl)piperazin-1-yl]ethyl}-1,5,6,7-tetrahydroindol-4-one], in series [1], the ED50 at 30 min was found to be 23 mg/kg. Besides, the “minimum effective dose, Conditioned Avoidance Response” value in the series on C-57 mice (models unwanted side effects) is greater than 10 mg/kg. Also, in the series with C-57 mice (setting [2]), the “effect in the CAR model compared to vehicle treated mice” value was “did not produce any effect”. Also, the “minimum effective dose, Locomotor Activity” value with mice (models unwanted side effects) is reported as greater than 10 mg/kg. In the series on mice (setting [2]), the “effect in the Spontaneous Activity model compared to vehicle treated mice” value is on record as “did not produce any effect”. Also, the minimal effective dose worked out at 3 mg/kg in the series with Male C57 mice (sc, subcutaneous) and 1 mg/kg in the series on Male C57 mice (oral). Also, in the series on Male C57 mice (doses of 10 mg/kg, PCP-induced disruption), the “prepulse inhibition versus control levels (FIG. 1)” value was “inhibition was returned to control levels”. Further, the “minimum effective dose, Prepulse Inhibition (PPI)” value in the series on Male C57 mice (reversal of PCP-induced disruption, route not given) is 3 mg/kg. Further, the “suppressed basic movements compared to vehicle treated animals (FIG. 2)” value in the series with C57/BL6 male mice is “displayed a reduction in suppressed basic movements”.
